{"source": "paper PMC6323635", "about": "(Journal of natural products, 2016)", "key": {"[1]": {"tested_on": "tumor growth in xenograft models", "conditions": "cited from earlier work"}, "LNCaP cells": {"tested_on": "LNCaP cells", "assay": "CCK-8 cytotoxicity assay under hypoxic conditions", "type": "cell-based, human", "conditions": "read-out: IC50 value (μM) ± SEM, LNCaP (18 h, 1% O2), 1% O2, CCK-8"}, "HIF-1α/p300": {"biological_target": "HIF-1α/p300 (Homo sapiens, UniProt Q09472)", "sequence (Q09472 331-417 limits assumed)": "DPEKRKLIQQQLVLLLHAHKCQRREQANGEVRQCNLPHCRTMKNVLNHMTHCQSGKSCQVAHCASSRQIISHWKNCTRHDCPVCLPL", "assay": "HIF-1α/p300 screening assay", "type": "binding"}, "[2]": {"tested_on": "HIF-1α transcriptional activity in HCT 116 cells", "assay": "HIF reporter assay", "type": "cell-based"}, "[3]": {"tested_on": "HIF-1α transcriptional activity in LNCaP cells", "assay": "HIF reporter assay", "type": "cell-based, human"}, "HCT 116 cells [4]": {"tested_on": "HCT 116 cells", "assay": "CCK-8 cytotoxicity assay under hypoxic conditions", "type": "cell-based, human", "conditions": "0.5% O2, CCK-8"}, "[5]": {"tested_on": "HIF-1α transcriptional activity in COLO 205 cells", "assay": "HIF reporter assay", "type": "cell-based, human"}, "COLO 205 cells": {"tested_on": "COLO 205 cells", "assay": "CCK-8 cytotoxicity assay under hypoxic conditions", "type": "cell-based", "conditions": "for IC50: read-out: IC50 value (μM) ± SEM, COLO 205 (48 h, 0.5% O2), COLO 205, 48 h, 0.5% O2, CCK-8; for Cell death in COLO 205 cells: up to concentrations of 10 μM, hypoxia"}, "DNA topoisomerase II": {"tested_on": "DNA topoisomerase II", "conditions": "cited from earlier work"}, "[6]": {"tested_on": "VEGF secretion in HCT 116 cells", "assay": "VEGF ELISA", "type": "cell-based, human", "conditions": "for Hypoxia-induced VEGF secretion in HCT 116 cells: 48 h, 0.5% O2, concentrations active in HIF reporter assay"}, "[7]": {"tested_on": "VEGF secretion in LNCaP cells", "assay": "VEGF ELISA", "type": "cell-based, human", "conditions": "18 h, 1% O2"}, "HCT 116 cells [8]": {"tested_on": "HCT 116 cells", "conditions": "cited from earlier work"}, "[9]": {"tested_on": "ENO1, VEGF, and LDHA mRNA expression in PC3 prostate cancer cells", "conditions": "cited from earlier work"}, "HCT 116 cells [10]": {"tested_on": "HCT 116 cells", "conditions": "cited from earlier work", "remark": "listed apart in the source"}, "[11]": {"conditions": "read-out: IC50 value (μM) ± SD, HIF-1α/p300 screening assay, cell-free assay, ± SD"}, "[12]": {"conditions": "read-out: IC50 value (μM) ± SEM, HCT 116 (18 h, 0.5% O2), HCT 116, 18 h"}}, "note": "Entries after “also recorded” stand apart in the source; their conditions may differ. Like-named read-outs stand apart in the source and are kept apart here."}
{"compound": "O=C1CC2SC3CC2(C=C1Br)C1=C(N3)C(=O)c2[nH]cc3c2C1=NCC3", "note": "(single isomer, unassigned; (+)) [compound 6, (+)-discorhabdin A]", "values": [{"measurement": "Tumor growth in xenograft models", "setting": "[1]", "value": "did not reduce tumor growth"}]}
{"compound": "(−)-discorhabdin W [compound 11]", "values": [{"measurement": "IC50", "setting": "LNCaP cells", "value": "> 10", "unit": "µM"}, {"measurement": "Activity in the screening assay", "setting": "HIF-1α/p300; in words", "value": "no activity"}, {"measurement": "IC50", "setting": "HIF-1α/p300; [11]", "value": "> 100", "unit": "µM"}, {"measurement": "Effect on HIF-1α transcriptional (reporter) activity in HCT 116 cells", "setting": "[2]", "value": "reduced HIF reporter activity"}, {"measurement": "Activity in HIF reporter assay in LNCaP cells", "setting": "[3]", "value": "did not show activity"}, {"measurement": "Concentrations causing significant inhibition of luciferase activity, LNCaP", "setting": "[3]", "value": "no effect"}, {"measurement": "IC50", "setting": "HCT 116 cells [4]; [12]", "value": "> 10", "unit": "µM"}, {"measurement": "Concentrations causing significant inhibition of luciferase activity, COLO 205", "setting": "[5]", "value": "no effect"}, {"measurement": "IC50", "setting": "COLO 205 cells", "value": "> 10", "unit": "µM"}, {"measurement": "Cell death in COLO 205 cells", "setting": "COLO 205 cells", "value": "did not cause substantial cell death"}]}
{"compound": "O=C1C(NC2Cc3cc(Br)c(O)cc3S2)=CC2=NCCc3c[nH]c1c32", "note": "(single isomer, unassigned; (-)) [compound 5, (−)-makaluvamine F]", "values": [{"measurement": "Inhibition of DNA topoisomerase II", "setting": "DNA topoisomerase II", "value": "inhibit DNA topoisomerase II"}, {"measurement": "Concentrations causing significant inhibition of luciferase activity, COLO 205", "setting": "[5]; p < 0.05, 18 h, 0.5% O2", "value": "no effect"}, {"measurement": "Cell death in COLO 205 cells", "setting": "COLO 205 cells", "value": "did not cause substantial cell death"}]}
{"compound": "(−)-discorhabdin H [compound 8]", "values": [{"measurement": "IC50", "setting": "LNCaP cells", "value": "> 10", "unit": "µM"}, {"measurement": "IC50", "setting": "HIF-1α/p300; [11]", "value": "2.2 ± 0.6", "unit": "µM"}, {"measurement": "Concentrations causing significant inhibition of luciferase activity, LNCaP", "setting": "[3]; p < 0.05, 18 h, 1% O2, superscript a = >50% cell death in CCK-8 assay", "value": 0.1, "unit": "µM"}, {"measurement": "IC50", "setting": "HCT 116 cells [4]; [12]", "value": "> 10", "unit": "µM"}, {"measurement": "IC50", "setting": "HCT 116 cells [4]; read-out: IC50 value (μM) ± SEM, HCT 116 (48 h, 0.5% O2), HCT 116, 48 h", "value": "> 50", "unit": "µM"}, {"measurement": "Concentrations causing significant inhibition of luciferase activity, COLO 205", "setting": "[5]; p < 0.05, 18 h, 0.5% O2", "value": "no effect"}, {"measurement": "IC50", "setting": "COLO 205 cells", "value": "> 10", "unit": "µM"}, {"measurement": "Cell death in COLO 205 cells", "setting": "COLO 205 cells", "value": "did not cause substantial cell death"}, {"measurement": "Hypoxia-induced VEGF secretion in HCT 116 cells", "setting": "[6]", "value": "none of these compounds significantly reduced"}, {"measurement": "VEGF secretion in LNCaP cells", "setting": "[7]; 0.5 μM", "value": "significant decrease; also recorded: significantly decreased"}]}
{"compound": "O=C1C2=C3C4=[N+](CCc5c[nH]c1c54)[C@@H]1C(=O)C=C4S[C@@H](C[C@@]43[C@H]1O)N2", "note": "[compound 9, (−)-discorhabdin L]", "values": [{"measurement": "Concentrations causing significant inhibition of luciferase activity, COLO 205", "setting": "[5]; p < 0.05, 18 h, 0.5% O2", "value": "no effect"}, {"measurement": "Hypoxia-induced VEGF secretion in HCT 116 cells", "setting": "[6]", "value": "none of these compounds significantly reduced"}, {"measurement": "VEGF concentrations in LNCaP cells", "setting": "[7]; 0.25–1 μM", "value": "borderline significant decrease"}]}
{"compound": "O=C1C2=C3C4=[N+](CCc5c[nH]c1c54)[C@H]1C[C@@]34C[C@@H](N2)SC4=CC1=O", "note": "[compound 7, (−)-discorhabdin D]", "values": [{"measurement": "Antitumor activity in vivo", "setting": "[1]", "value": "the only reported discorhabdin with such activity"}]}
{"compound": "O=C1C=C(S[C@H]2[C@H]3C(=O)C=C4S[C@H]5C[C@]42C2=C(N5)C(=O)c4[nH]cc5c4C2=[N+]3CC5)[C@]2(C=C1Br)CCNC1=C2C2=NCCc3c[nH]c(c32)C1=O", "note": "[compound 2, (−)-discorhabdin B dimer]", "values": [{"measurement": "Effect on HIF-1α transcriptional (reporter) activity in HCT 116 cells", "setting": "[2]; in words, 18 h, 0.5% O2", "value": "most potent at decreasing reporter activity"}, {"measurement": "Concentrations causing significant inhibition of luciferase activity, COLO 205", "setting": "[5]; p < 0.05, 18 h, 0.5% O2", "value": "no effect"}, {"measurement": "Cell death in COLO 205 cells", "setting": "COLO 205 cells", "value": "did not cause substantial cell death"}, {"measurement": "Trend in VEGF secretion in HCT 116 cells", "setting": "[6]; 0.1–0.25 μM, 18 h and 48 h", "value": "statistically nonsignificant trend in the decrease"}, {"measurement": "Hypoxia-induced VEGF secretion in HCT 116 cells", "setting": "[6]", "value": "none of these compounds significantly reduced"}]}
{"compound": "CN1C(=O)[C@]23CC4=CC=C[C@H](O)[C@H]4N2C(=O)[C@@]1(CO)SS3", "note": "[gliotoxin]", "values": [{"measurement": "Effects on HIF target mRNA expression in HCT 116 cells", "setting": "HCT 116 cells [8]", "value": "no effects"}, {"measurement": "ENO1, VEGF, and LDHA mRNA expression in PC3 prostate cancer cells", "setting": "[9]", "value": "lowered"}]}
{"compound": "CN1C(=O)[C@]2(Cc3cn([C@]45C[C@@]67SS[C@@](CO)(C(=O)N6[C@H]4Nc4ccccc45)N(C)C7=O)c4ccccc34)SS[C@@]1(CO)C(=O)N2C", "note": "[chetomin, reference compound]", "values": [{"measurement": "IC50", "setting": "HIF-1α/p300", "value": "1.9 ± 0.5", "unit": "µM"}]}
{"compound": "(+)-discorhabdin G*/I [compound 4]", "values": [{"measurement": "IC50 values, cytotoxicity in HCT 116 cells", "setting": "HCT 116 cells [10]", "value": "lower micromolar range"}]}
{"compound": "O=C1C=C2S[C@H]3C[C@]2(C=C1Br)C1=C(N3)C(=O)c2[nH]cc3c2C1=NCC3", "note": "[compound 1, (+)-discorhabdin B]", "values": [{"measurement": "Concentrations causing significant inhibition of luciferase activity, COLO 205", "setting": "[5]; p < 0.05, 18 h, 0.5% O2", "value": "no effect"}, {"measurement": "Tumor growth in xenograft models", "setting": "[1]", "value": "did not reduce tumor growth"}]}
{"compound": "O=C1C2=C(C3=NCCc4c[nH]c1c43)[C@]1(C=C(Br)[C@H](O)C(Br)=C1)CCN2", "note": "[compound 3, 3-dihydrodiscorhabdin C]", "values": [{"measurement": "Concentrations causing significant inhibition of luciferase activity, COLO 205", "setting": "[5]; p < 0.05, 18 h, 0.5% O2", "value": "no effect"}, {"measurement": "IC50 values, cytotoxicity in HCT 116 cells", "setting": "HCT 116 cells [10]", "value": "lower micromolar range"}]}
